Experimental data reported in PubChem BioAssay AID1949 (Southern Research Institute, 2009).
≈ marks a conversion by molar mass, not a printed value. Inconclusive results are not listed. Calls of active or inactive are those of the source. The rule behind the calls is not given here.

Tested on: M. tuberculosis H37Rv growth inhibition
Test: Confirmatory growth inhibition assay against Mycobacterium tuberculosis H37Rv, potency (AID 1949);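 note: bacteria grown 7 days with compound before Alamar blue readout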

CCOC(=O)C(C)Oc1ccc2c(=O)c(-c3ccc(Br)cc3)coc2c1 (centres undefined)
IC50: > 50 µg/mL (inactive)

Cc1cc(C)cc(NC(=S)NC2CCCC2)c1
IC50: 8.73 µg/mL (≈ 35.1 µM)

CCOc1ccc(NC(=O)c2c(NC(=O)CNCCN3CCOCC3)sc3c2CCC3)cc1
IC50: 1.33 µg/mL (≈ 2.81 µM)

O=C(NCC1COc2ccccc2O1)c1ccc(NC(=O)C2COc3ccccc3O2)cc1 (centres undefined)
IC50: 1.94 µg/mL (≈ 4.35 µM)

Cc1ccc(OC(=O)c2ccc3nc(C)sc3c2)cc1
IC50: > 50 µg/mL (inactive)

Cc1ccc(OC(F)F)c(NC(=O)Nc2ccc([N+](=O)[O-])cc2)c1
IC50: 22.4 µg/mL (≈ 66.5 µM)

CCOC(=O)C(C)Oc1ccc2c(=O)c(-c3ccc(Cl)cc3)coc2c1 (centres undefined)
IC50: > 50 µg/mL (inactive)

Cc1ccc(C(=O)Nc2nc(C(C)(C)C)cs2)cc1[N+](=O)[O-]
IC50: 27.2 µg/mL (≈ 85.3 µM)

O=C(Nc1cccc2cccnc12)c1ccc([N+](=O)[O-])o1
IC50: 8.91 µg/mL (≈ 31.5 µM)

O=C(CCSc1ccc(Cl)cc1)Nc1ccc(F)c(Cl)c1
IC50: 4.06 µg/mL (≈ 11.8 µM)

CCn1c(-c2ccco2)nc2ccccc21
IC50: 2.39 µg/mL (≈ 11.3 µM)

C=CS(=O)c1sc(Cl)c(N2CCOCC2)c1[N+](=O)[O-] (centres undefined)
IC50: 5.77 µg/mL (≈ 17.9 µM)

CCOC(=O)COc1ccc(S(=O)(=O)N2CCC(C)CC2)cc1
IC50: 1.35 µg/mL (≈ 3.95 µM)

O=C(CC12CC3CC(CC(C3)C1)C2)Nc1ccc(F)c(Cl)c1
IC50: 3.02 µg/mL (≈ 9.38 µM)

COc1cc(CNC(C)c2ccccc2)cc(Br)c1OCc1ccccc1 (centres undefined)
IC50: 6.21 µg/mL (≈ 14.6 µM)

Cc1ccc(C(C)C)cc1OCCCCn1ccnc1
IC50: 1.88 µg/mL (≈ 6.9 µM)

CCCc1ccc(OC(=O)c2cc3ccccc3oc2=O)cc1
IC50: 22.4 µg/mL (≈ 72.5 µM)

CC(C)OC(=O)CSc1nnc(-c2ccc(N(C)C)cc2)o1
IC50: < 0.1 µg/mL

Cc1cccc(NC(=O)c2cc(-c3cccs3)nc3ccccc23)n1
IC50: 1.82 µg/mL (≈ 5.27 µM)

O=C(Nc1ccc(F)cc1)c1ccc(C#CC2(O)CCCCC2)cc1
IC50: 10.6 µg/mL (≈ 31.4 µM)

O=C(Oc1ccc(Cl)c2cccnc12)c1cccs1
IC50: 0.37 µg/mL (≈ 1.28 µM)

Cc1cccc2sc(NC(=O)c3ccc([N+](=O)[O-])cc3Cl)nc12
IC50: 19.4 µg/mL (≈ 55.8 µM)

Cc1ccc(-n2cc(-c3ccccc3)c3c(NCc4cccnc4)ncnc32)cc1
IC50: 3.25 µg/mL (≈ 8.3 µM)

Cc1cccc(OCCCn2cnc3cc(C)c(C)cc32)c1
IC50: 1.84 µg/mL (≈ 6.25 µM)

OC(COc1ccc2ccccc2c1Br)Cn1ccnc1 (centres undefined)
IC50: 5.39 µg/mL (≈ 15.5 µM)

COc1ccc2nc(/C(C#N)=C\c3cccn3-c3ccccc3F)[nH]c2c1
IC50: 4.8 µg/mL (≈ 13.4 µM)

Cc1cc(Br)c2[nH]c(O)c(N=NC(=O)COc3ccc(C(C)(C)C)cc3C)c2c1
IC50: 27 µg/mL (≈ 59 µM)

COc1ccc(CC(=O)Nc2ccc(-c3nc4ccccc4c(=O)o3)cc2)cc1
IC50: 15.1 µg/mL (≈ 39 µM)

O=C(CCN1CCCCCC1)c1ccc(Cl)cc1
IC50: 22.7 µg/mL (≈ 85.5 µM)

CCCCN1CCC(O)(c2ccccc2)C(C(=O)c2ccccc2)C1 (centres undefined)
IC50: 11.4 µg/mL (≈ 33.9 µM)

O=C(Nc1ccc(-c2nc3ccccc3c(=O)o2)cc1)C1CCCCC1
IC50: 23.9 µg/mL (≈ 68.7 µM)

O=[N+]([O-])c1ccc(NC(=S)NCc2ccc(Cl)c(Cl)c2)cc1
IC50: 1.84 µg/mL (≈ 5.17 µM)

COc1ccc(-c2cc(C(=O)N/N=C/C=C/c3ccccc3OC)[nH]n2)cc1
IC50: < 0.1 µg/mL

CC(C)COCc1ccc(O)c2ncccc12
IC50: > 50 µg/mL (inactive)

CCCCc1ccc(N/C(N)=N\c2nc(C)cc(C)n2)cc1
IC50: 23.3 µg/mL (≈ 78.2 µM)

CCC(C)c1ccc(OCC(=O)NC2C3CC4CC(C3)CC2C4)cc1 (centres undefined)
IC50: 7.97 µg/mL (≈ 23.3 µM)

Cn1c(NC(=S)Nc2ccccc2)nc2ccccc21
IC50: 0.35 µg/mL (≈ 1.24 µM)

CCC(C)c1ccc(O)c(NC(=S)NC(=O)c2ccc(-c3ccc(Cl)cc3)o2)c1 (centres undefined)
IC50: < 0.1 µg/mL

Clc1ccc(OCCCCn2ccnc2)cc1Cl
IC50: 2.01 µg/mL (≈ 7.05 µM)

O=C(NCCCN1CCN(c2ccc(Cl)cc2)CC1)Nc1ccc(F)cc1
IC50: 9.16 µg/mL (≈ 23.4 µM)

CC1CCc2c(sc3nc4c5ccccc5c(N5CCN(CCO)CC5)nn4c(=O)c23)C1 (centres undefined)
IC50: 4.86 µg/mL (≈ 10.8 µM)

CCN(CC)c1ccc(NC(=S)NCC(C)C)cc1
IC50: 5.43 µg/mL (≈ 19.4 µM)

Cc1ccc(C(=O)NC(=S)Nc2cccc(NC(=O)c3cccs3)c2)c(C)c1
IC50: 6.96 µg/mL (≈ 17 µM)

O=C(NC(=S)Nc1ccc(F)cc1)c1ccc(Br)cc1
IC50: 0.95 µg/mL (≈ 2.69 µM)

Cc1csc(NC(=O)CSc2ccc(Br)cc2)n1
IC50: 5.62 µg/mL (≈ 16.4 µM)

Nc1nnc(Sc2ccc([N+](=O)[O-])c3ncccc23)s1
IC50: 3.47 µg/mL (≈ 11.4 µM)

CCCCc1ccc2nc(NC(=O)c3cccs3)sc2c1
IC50: 6.52 µg/mL (≈ 20.6 µM)

CN(Cc1ccccc1)C(=S)NC(=O)c1cccs1
IC50: 0.74 µg/mL (≈ 2.55 µM)

CCOC(=O)C1=C(c2ccc(OC)cc2)C(=O)c2ccccc2C1=O
IC50: 6.6 µg/mL (≈ 19.6 µM)

O=[N+]([O-])c1c(-n2cccn2)nn(-c2ccccc2)c1C(Cl)Cl
IC50: 3.09 µg/mL (≈ 9.14 µM)

COc1cc(CNCc2cccnc2)ccc1OCc1ccc(Cl)cc1Cl
IC50: 8.24 µg/mL (≈ 20.4 µM)

CCOc1cccc2cc(-c3nc4ccc(C)cc4[nH]3)c(=O)oc12
IC50: < 0.1 µg/mL

Cc1ccccc1N1CCN(CC(O)COc2ccc(C(=O)c3ccccc3)cc2)CC1 (centres undefined)
IC50: 2.81 µg/mL (≈ 6.53 µM)

Cc1cc(C)n(-c2nc3sc4c(c3c(=O)[nH]2)CCCC4)n1
IC50: 24.4 µg/mL (≈ 81.1 µM)

c1ccc2c(N3CCCCC3)nc(N3CCCC3)nc2c1
IC50: 40.4 µg/mL (≈ 143 µM)

COc1ccccc1-c1c(C)oc2cc(OCC(=O)OCc3ccccc3)ccc2c1=O
IC50: 0.36 µg/mL (≈ 0.836 µM)

COc1ccccc1NC(=O)CSc1nc2cc3ccccc3cc2[nH]1
IC50: 3.08 µg/mL (≈ 8.47 µM)

COc1ccc(C(=O)O/N=C(\N)Cc2ccc(Cl)c(Cl)c2)cc1OC
IC50: 9.32 µg/mL (≈ 24.3 µM)

Cc1nn2c3ccc(N)cc3nc2c2ccccc12
IC50: 17.5 µg/mL (≈ 70.6 µM)
